Key:
IL-33 expression in OPCs = assay: q-PCR on the induction of IL-33 in OPCs cultured with AA; assay type: cell-based, rat; details: 3 h, relative to GAPDH, vehicle = 1.00
Protocol: The effect of AA on the expression of myelin genes, MBP, and IL-33 was examined. […] Natarajan et al., PLOS One, 11(3):e0152163 (2016); Sriram et al., Neurology, Abstract presented at the American Academy of Neurology, 2016 (2016). The studies were done in OPCs obtained from rat pups. OPCs were treated with AA (2.5 μM) for 3 hours and message levels were quantified using qPCR analysis. OPCs treated with AA induced the major myelin genes Mbp, Mog and Plp.
The expression of IL-33 induced by AA in OPCs was also examined. […] (FIG. 3). The data is expressed as fold change compared to the control protein GAPDH.

MBP in OPCs = assay: Western blot of MBP in OPCs cultured with AA for 10 days; assay type: cell-based, rat
Protocol: To further verify the ability of AA to induce MBP protein synthesis, 4×10^6 OPCs were cultured in poly-D lysine coated culture dishes with and without AA for 10 days. The AA concentrations that were studied were as follows: 1, 2.5, 5, 7.5, and 10 μM. The growth medium was changed every three days. […] Upon culture in vitro, OPCs differentiated and became myelin expressing cells, a process which took about 7-14 days.

IL-33 protein in OPCs = assay: Western blot of IL-33 protein in OPCs (nuclear extracts) cultured with AA; assay type: cell-based, rat; details: for increase in the protein level of IL-33: OPCs
Protocol: FIG. 5 (top) provides the results of Western blot studies showing increased expression of IL-33 in the presence of AA in OPCs. […] Because IL-33 is mainly in the nucleus, the Wester blots were done with nuclear extracts and Lamin was used as the control.
In addition, at a dose of 2.5 μM of AA, there was a 1.8 fold increase in the protein level of IL-33, and at a dose of 7.5 μM of AA, there was a 3.1 fold increase in the protein level of IL-33 (FIG. 5).

[1] = test system: experimental allergic encephalitis (EAE); assay: EAE prevention, AA from day of immunization with MOG peptide; assay type: in vivo, mice
Excerpt: In two experiments, only 2 of 10 mice in the AA treated group developed grade 1 paralysis. In the vehicle treated group, 9 out of 10 mice developed paralysis. Clinical scoring: 1=limp tail, 2=ataxia of gait and paralysis of one or more limbs, 3=paralysis of two or more limbs, 4=weakness of all limbs, 5=death.
(§1) The data is expressed as a percent area of myelin loss in three non-contiguous axial sections of the spinal cord; p<0.01 between treated and untreated groups when AA is given beginning day 0 or from the onset of symptoms.
(§2) Experimental allergic encephalitis (“EAE”) is an autoimmune inflammatory demyelinating disease of the CNS. For experimental purposes, the disease is induced in animals by immunizing the animals with myelin antigens in adjuvant. […] Ten to twelve days after immunization, paralysis develops in the animals. The degree of paralysis is scored as follows: 1=limp tail, 2=ataxia of gait and paralysis of one or more limbs, 3=paralysis of two or more limbs, 4=weakness of all limbs, 5=death.
The EAE model has been used extensively to examine the efficacy of potential drugs for MS therapy. The efficacy of AA in preventing EAE in mice immunized with MOG peptide in adjuvant was tested. A total of 10 mice were administered 0.25 mg/kg of AA dissolved in DMSO (vehicle) and a total of 10 mice were administered the vehicle alone by intraperitoneal injection daily for the entire length of the study (28 days). AA was obtained from commercial sources. Nine of 10 animals in the vehicle group developed paralytic signs, with a mean maximal paralytic score of 2.66. Two of 10 animals that received AA developed paralysis which was scored as a grade 1 paralysis (P<0.01 treated versus placebo). There was also significant decrease in the loss of myelin in the […]. (FIG. 13).
To confirm that the clinical scores calculated in the EAR experiments reflect pathology, the extent of demyelination in the cervical, thoracolumbar cord of each mouse in the vehicle treated and AA treated groups was examined. […]

[2] = test system: experimental allergic encephalitis (EAE); assay: EAE treatment, AA from earliest onset of paralytic signs; assay type: in vivo, mice
Excerpt: as §1, §2
To determine if treatment with AA would promote recovery after paralytic attack, the experiment shown in FIG. 13 was repeated but treatment with AA was not initiated until the earliest sign of disease appeared which occurred between days 11 and 12 following the initial immunization with MOG antigen. In the experiment, 10 mice were administered 0.25 mg/kg AA a day in DMSO and 10 mice were administered DMSO (vehicle). In the 10 mice that received 0.25 mg/kg AA a day, there was no difference in the mean maximal severity of the disease when compared to vehicle treated mice. The mean maximal severity was 2.8 in the vehicle treated group and was 2.6 in the AA treated group. However, there was a rapid reversal of paralysis in the AA treated group.
When AA was administered at the earliest onset of clinical signs of paralysis, the percent demyelination score in the AA treated group was 2.9. In comparison, in the vehicle treated group the percent demyelination score was 7.2 (P<0.01) (FIG. 15).

CCCCCCCCCCCCCCCc1cccc(O)c1C(=O)O [AA, anacardic acid]
Fold change of IL-33 expression (IL-33 expression in OPCs; AA 2.5 μM): 8.54 fold
Fold change of IL-33 expression (IL-33 expression in OPCs; AA 5 μM): 4.77 fold
increase in the expression of MBP (image analysis, FIG. 4) (MBP in OPCs; OPCs cultured with AA, concentration not given): 2.4 fold
level of MBP (Western blot) (MBP in OPCs; OPCs, AA 1, 2.5, 5, 7.5 and 10 μM, 10 days): increased the level of MBP in a dose dependent manner
increase in IL-33 protein expression (image analysis of gels, FIG. 5) (IL-33 protein in OPCs; OPCs nuclear extracts, Lamin control, concentration not given): 1.6 fold
increase in the protein level of IL-33 (IL-33 protein in OPCs; AA 2.5 μM): 1.8 fold
increase in the protein level of IL-33 (IL-33 protein in OPCs; AA 7.5 μM): 3.1 fold
demyelination in the spinal cord ([1]; AA 0.25 mg/kg daily from day 0, vehicle 9.9+/−4.0 percent): no demyelination
animals that developed paralysis ([1]; AA 0.25 mg/kg ip daily for 28 days from immunization, vehicle nine of 10, P<0.01): 2 of 10 and Two of 10
grade of paralysis (clinical score 1-5) ([1]; AA 0.25 mg/kg ip daily from immunization, affected animals): 1
mean maximal severity (clinical score) ([2]; AA 0.25 mg/kg a day from earliest sign of disease (days 11-12), vehicle 2.8): 2.6
percent demyelination score ([2]; AA 0.25 mg/kg/day from earliest onset of clinical signs, vehicle 7.2, P<0.01): 2.9%
recovery from paralysis ([2]; by day 24, AA 0.25 mg/kg a day from onset, one animal grade 2 weakness): all the other mice had fully recovered

Source: US12083134B2, “Anacardic acid for neural repair” (Vanderbilt University, priority 2018, dated 2024)
